Key:
db/db mice [1] = assay: Insulin tolerance test; assay type: in vivo, mouse
Experimental: FIG. 5B. Insulin tolerance test (ITT). db/db mice with or without FTY720 treatment were fasted for 6 hours, and injected intraperitoneally with human regular insulin (0.55 U/kg) (Sigma), […] Open circle (∘), FTY720-untreated group; solid circle (●), FTY720-treated group. *p<0.05.
For the glucose tolerance test, the mice were fasted for 16 h and intraperitoneally injected with 10% glucose (1 mg/g of body weight). Glucose levels were then measured after 0, 30, 60, 90, and 120 min by a Glucometer Elite (Bayer Corp., Elkhart, Ind.) (29). For the insulin tolerance test, the mice were fasted for 6 h and injected intraperitoneally with human regular insulin (0.55 units/kg) (Sigma). […]

Bcl-xL = Bcl-xL mRNA levels in islets of db/db mice; assay type: in vivo, mouse; settings: islets from FTY720-treated db/db mice vs untreated
Experimental: FIG. 10B. Levels of Bcl-xL mRNA levels of the db/db mice with (+FTY720) or without FTY720 (−FTY720) treatment. *p=0.002
Islets were isolated from pancreases removed from the 13-week-old untreated and FTY720-treated db/db mice by Liberase (Roche Diagnostics) digestion, followed by discontinuous Ficoll gradient separation and manual stereomicroscopic selection to exclude contaminating tissues (30). Isolated islets (or INS-1 cells) were cultured in the medium (composed of RPMI 1640 medium supplemented with 10% fetal bovine serum, 2 mM L-glutamine, 1% sodium pyruvate, 50 μM β-mercaptoethanol, 100 units/ml of penicillin, and 100 μg/ml of streptomycin). For treatment of INS-1 cells, the cells were plated in RPMI medium overnight and changed to Hanks' balanced salt solution containing 2 mM glucose and 0.5% FBS overnight. Then the cells were treated with various conditions in the same medium for 24 hours.
To determine the mechanism of action (MOA) behind the increase in beta-cell mass observed in the treated mice, beta-cell survival was examined.

[2] = patients with relapsing multiple sclerosis; cited from earlier work
db/db mice [3] = assay: Fasting serum insulin levels (ELISA) in db/db mice; assay type: in vivo, mouse; settings: FTY720-treated vs untreated, after overnight fasting
Text: FIG. 4. Fasting serum insulin levels of the db/db mice with (+FTY720) or without FTY720 (−FTY720) treatment (*p<0.01).
After overnight fasting, blood samples ([…]) were collected in a heparinized microhematocrit tube for the determination of insulin concentration using a Ultra Sensitive Mouse Insulin ELISA Kit (Crystal Chem Inc., Downers Grove, Ill.) (30).

[4] = system: isolated pancreatic islets; assay: Glucose-stimulated insulin secretion by isolated normal islets ex vivo; assay type: cell-based, mouse; settings: islets from 8 weeks old normal C57/BL6 mice, 0.2 μM FTY720, 24 hours
Experimental: Islets were isolated from 8 weeks old normal C57/BL6 mice and treated with or without 0.2 μM FTY720 in the culture medium without FBA for 24 hours. Then the islets were stimulated with glucose and secreted insulin was measured using an Ultra Sensitive Mouse Insulin ELISA Kit (Crystal Chem Inc., Downers Grove, Ill.) and total proteins of islets were measured.

[5] = Body weight of db/db mice with or without oral FTY720; assay type: in vivo, mouse; settings: FTY720-treated vs untreated group
Experimental: FIG. 2B. Time course of the body weight of db/db mice with or without oral FTY720. Open circle (∘), FTY720-untreated group; solid circle (●), pre-diabetic db/db mice (Fasting glucose<126 mg/dL) at six-week-old treated with 10 mg/kg FTY720. […]
Animals and Procedures—Five-week-old female db/db mice (BKS.Cg-m+/−Leprdb) were purchased from Jackson Laboratories (Bar Harbor, Me.). […] After 1 week, the fasting glucose levels of the 6-week-old mice were measured. […] Mice in the FTY720-treated group were fed 10 mg/kg of FTY720 daily by feeding tube and their food intake and body weight were measured twice a week. Fasting glucose levels were measured at the end of each week. […] After metabolic analysis, the pancreases were removed from the mice at 13 and 16 weeks of age for immunohistochemical analysis, quantitation of islet area, or islet isolation.

Structure (SMILES): CCCCCCCCc1ccc(CCC(N)(CO)CO)cc1 [FTY720, 2-amino-2-[2-(4-octylphenyl)ethyl]propane-1,3-diol]
- glucose levels in treated vs untreated groups after insulin administration (db/db mice [1]; after 70 min in insulin tolerance test): similar
- insulin sensitivity (db/db mice [1]; db/db mice fasted 6 h, i.p. human regular insulin 0.55 U/kg): not affected
- Bcl-xL mRNA levels (Bcl-xL): significantly increased
- cancer formation in phase III clinical trials [2]: without reported cancer formation
- fasting serum insulin levels (db/db mice [3]): significantly elevated
- glucose-stimulated insulin secretion [4]: does not affect
- weight gain [5]: significantly higher
